No end group written: not given here.
Legend:
[1] = system: A549 cells; test: A549 tumor xenograft in nude mice, tumor weight; type: in vivo, mouse; details: s.c. A549 xenograft, paclitaxel alone 40 mg/kg single i.v. dose, 48 h, n = 5 mice per group
Description: We further investigated the in vivo effects of Tat-Fhit 7-13 peptide with or without paclitaxel treatment in a preclinical model of lung cancer, using six groups of mice (n = 5 mice per group). Each group was subcutaneously injected with 1×10^7 A549 cells. When tumors reached the diameter of 15 mm, three groups were treated either with a single administration of 40 mg/kg paclitaxel, or 50 mg/kg Tat-Fhit 7-13 peptide, or both; mice were monitored on a regular basis. The remaining three groups, used as controls, were either left untreated or treated with Tat-Fhit 7-13 scrambled or treated with Tat-Fhit 7-13 scrambled plus paclitaxel; 48 h after treatments, mice were sacrificed and tumors were evaluated by weight.
Figure 3 Tat-Fhit 7-13 peptide in combination with paclitaxel blocks in vivo tumor formation A., C. Nude mice were subcutaneously injected with […] A549 cells. When tumors reached 15 mm diameter, mice were mock-treated, treated paclitaxel (single IV administration of 40 mg/kg), with scrambled Tat peptide (50 mg/kg) alone or in combination with paclitaxel, with Tat-Fhit 7-13 peptide (50 mg/Kg) alone or in combination with paclitaxel; paclitaxel and peptides were injected in a single administration and mice were monitored on a regular basis. Two days later, mice were sacrificed and tumors were evaluated by percent A. and by weight C.. […]

[2] = culture medium over adherent cells, 24 h after administration, read-out MALDI mass spectrometry
Text: We tested the stability of our peptides in the culture medium over adherent cells through Mass Spectroemtry-MALDI.

[3] = molecular target: T1, Annexin A4 (Homo sapiens, UniProt P09525); test: GST pull-down from A549 total lysates, immunoblot for Annexin 4; type: binding; details: GSH resin beads, 12 h at 4°C
T1 construct: endogenous in cells; host or cells: A549 total lysates
T1 sequence (P09525 1-319): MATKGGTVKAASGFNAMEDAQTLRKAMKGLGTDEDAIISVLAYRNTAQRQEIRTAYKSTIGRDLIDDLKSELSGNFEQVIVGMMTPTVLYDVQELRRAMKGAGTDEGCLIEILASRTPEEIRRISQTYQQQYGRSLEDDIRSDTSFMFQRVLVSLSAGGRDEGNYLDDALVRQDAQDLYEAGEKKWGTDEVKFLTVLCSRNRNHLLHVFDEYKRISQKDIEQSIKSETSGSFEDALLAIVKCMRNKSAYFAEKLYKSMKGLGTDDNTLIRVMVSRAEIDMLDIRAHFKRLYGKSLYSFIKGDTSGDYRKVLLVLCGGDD
Text: In order to map the region of Fhit protein binding Annexin A4, we cloned downstream GST three truncated FHIT cDNAs, namely TR1 (332 bp), TR2 (212 bp) and TR3 (113 bp), all containing the N-terminus common to the wild-type Fhit protein. TR1, TR2, and TR3 correspond to the 111, 71, and 38 N-terminal aminoacids of Fhit protein, respectively (Figure 1A). Annexin A4 binds wild-type Fhit/GST fusion protein as well as all shorter forms of Fhit fusion proteins, indicating its binding to the N-terminus of Fhit (Figure 1B). In our previous paper, we reported that Fhit/Annexin A4 interaction was only detectable in the presence of DSP [19]. DSP is a cross-linker containing an amine-reactive N-hydroxysuccinimide (NHS); NHS esters react with primary amine group located at lysine (Lys, K) residue sidechain. Since Lys residues are abundant and easily accessible on the hydrophilic surface of most proteins they usually crosslink with high efficiency.
Figure 1 Fhit peptide interacts with Annexin 4 A. GST-Fhit fusion protein and three deletion mutant proteins. Fhit was deleted from the C-terminal site. B. GST-FHIT plasmids were amplified in BL21 bacteria by stimulation with IPTG […] for 6 h at 30°C. Recombinant GST-Fhit fusion proteins were purified with GSH resin beads and added to A549 total lysates. 12 h after incubation at 4°C, GSH resin beads were washed and proteins eluted. […]

Row | Compound | stability in the culture medium [2] | other results
1 | CC(=O)O[C@H]1C(=O)[C@@]2(C)[C@H]([C@H](OC(=O)c3ccccc3)[C@]3(O)C[C@H](OC(=O)[C@H](O)[C@@H](NC(=O)c4ccccc4)c4ccccc4)C(C)=C1C3(C)C)[C@]1(OC(C)=O)CO[C@@H]1C[C@@H]2O [paclitaxel] | – | tumor wt, % of controls [1]: 60%
2 | YGRKKRRQRRRGLSKQPHI [Tat-Fhit 7-13 scrambled peptide] | still stable and undegraded | –
3 | YGRKKRRQRRRGQHLIKPS [Tat-Fhit 7-13 peptide] | still stable and undegraded | –
4 | wild-type Fhit/GST fusion protein: recombinant full-length Fhit fused to GST, expressed in E. coli BL21 | – | binding of Annexin A4 (GST pull-down) [3]: binds
